Source: paper PMC7464159, “Triple Negative Breast Cancer and Breast Epithelial Cells Differentially Reprogram Glucose and Lipid Metabolism upon Treatment with Triterpenic Acids” (Biomolecules, 2020)

Tests used:
MCF-10A cells = experiment: 1H NMR metabolomics of polar (aqueous) cell extracts; type: cell-based, human; settings: BA 5µM
Method: MDA-MB-231 and MCF-10A cells were seeded in 10-cm-diameter Petri dishes at a density of 6 × 10^5 cells/mL (10 mL per dish) and cultured for 24 h at 37 °C. […] Vehicle solvent control cells received DMSO (0.10% v/v). Samples were collected immediately after 48 h incubation or, to assess cellular recovery, medium was replaced with fresh growth medium (without TAs), and cells were incubated for additional 24 h before collection (48 + 24 h samples). Four independent assays were performed.
After incubation, culture medium was collected and centrifuged (1000× g, 5 min) and the supernatant stored at −80 °C until analysis. Culture medium without cells was placed under the same conditions and collected. Cell extraction was performed as described by Carrola et al.. Briefly, cells were washed four times with PBS and extracted with a mixture of methanol:chloroform:water (1:1:0.7). The resulting polar and organic phases were collected and then dried under vacuum or under a stream of nitrogen gas, respectively. All samples were stored at −80 °C and, at the time of analysis, dried polar extracts were reconstituted in 600 µL of deuterated phosphate buffer (100 mM, pH 7.4) containing 0.1 mM TSP-d4, while organic extracts were reconstituted in deuterated chloroform containing 0.03% TMS. Regarding medium samples, 540 μL were mixed with 60 μL of D2O containing 0.25% TSP-d4. Prior to analysis, 550 μL of each sample were transferred to 5 mm NMR tubes.
^1H NMR spectra of all samples were acquired on a Bruker Avance III HD 500 NMR spectrometer (University of Aveiro, Portuguese NMR Network) operating at 500.13 MHz for ^1H observation equipped with a 5 mm TXI probe. Standard 1D spectra (Bruker pulse programs ‘noesypr1d’, with water suppression, for medium samples and aqueous extracts, and ‘zg’ for organic extracts) were recorded with a 7002.8 Hz spectral width, 32 k data points, a 2 s relaxation delay and 512 scans. Spectral processing comprised exponential multiplication with 0.3 Hz line broadening, zero filling to 64 k data points, manual phasing, baseline correction, and chemical shift calibration to the TSP or TMS signal at 0 ppm. 2D ^1H-^1H total correlation (TOCSY) spectra, ^1H-^13C heteronuclear single quantum correlation (HSQC) spectra and J-resolved spectra were also registered for selected samples to assist spectral assignment. Metabolites were identified with the support of 2D spectra and the spectral reference databases BBIOREFCODE-2-0-0 (Bruker Biospin, Rheinstetten, Germany) and HMDB [28]. Selected signals were then integrated using the AmixViewer software […] (version 3.9.14, Bruker BioSpin, Rheinstetten, Germany) and normalized by the total spectral area. The magnitude of each metabolite change was assessed through the percentage of variation (and its respective error) in exposed samples relatively to controls, and through the effect size (ES) adjusted for small sample numbers (and respective standard error). Metabolite variations with absolute ES greater than 0.8 were expressed in a heatmap, colored as a function of the percentage of variation, employing the R statistical software.

MDA-MB-231 cells = system: MDA-MB-231 cells; design: method as in PMID 28213701; settings: BA up to 20 µM, 24 h; cited from earlier work

C=C(C)[C@@H]1CC[C@]2(C(=O)O)CC[C@]3(C)[C@H](CC[C@@H]4[C@@]5(C)CC[C@H](O)C(C)(C)[C@@H]5CC[C@]43C)[C@@H]12 [BA, betulinic acid]
1-MethyInicotinamide %var (MCF-10A cells; 48h): 152.75% | 3-Hydroxyisobutyrate %var (MCF-10A cells; 48h): -48.45% | ATP %var (MCF-10A cells; 48h): 0% | Acetate %var (MCF-10A cells; 48h): 33.50% | Ala %var (MCF-10A cells; 48h): -39.74% | Asp %var (MCF-10A cells; 48h): -48.70% | Choline %var (MCF-10A cells; 48h): 46.22% | Citrate %var (MCF-10A cells; 48h): -74.68% | Cr %var (MCF-10A cells; 48h): 59.47% | Dimethylamine %var (MCF-10A cells; 48h): -40.51% | Formate %var (MCF-10A cells; 48h): 91.07% | Fumarate %var (MCF-10A cells; 48h): -80.00% | GPC %var (MCF-10A cells; 48h): 307.70% | GSH %var (MCF-10A cells; 48h): -31.85% | Gln %var (MCF-10A cells; 48h): 0% | Glu %var (MCF-10A cells; 48h): -75.91% | Glucose %var (MCF-10A cells; 48h): -56.45% | Glucose-1-phosphate %var (MCF-10A cells; 48h): -93.58% | Gly %var (MCF-10A cells; 48h): 41.70% | His %var (MCF-10A cells; 48h): -25.16% | Ile %var (MCF-10A cells; 48h): 218.16% | Lactate %var (MCF-10A cells; 48h): 161.49% | Leu %var (MCF-10A cells; 48h): 418.85% | NADH %var (MCF-10A cells; 48h): 62.88% | PC %var (MCF-10A cells; 48h): -78.42% | PCr %var (MCF-10A cells; 48h): 0% | Phe %var (MCF-10A cells; 48h): 0% | Pro %var (MCF-10A cells; 48h): 80.04% | Tyr %var (MCF-10A cells; 48h): -16.91% | UDP-GalNAc %var (MCF-10A cells; 48h): 123.58% | UDP-GlcNAc %var (MCF-10A cells; 48h): 151.53% | UDP-Glucose %var (MCF-10A cells; 48h): -75.09% | Val %var (MCF-10A cells; 48h): 138.35% | myo -Lno %var (MCF-10A cells; 48h): -19.23% | number of polar metabolites with altered intracellular levels (MCF-10A cells; 48h): 31 | 1-MethyInicotinamide %var (MCF-10A cells; 48h+24h): 56.61% | 3-Hydroxyisobutyrate %var (MCF-10A cells; 48h+24h): -48.51% | ATP %var (MCF-10A cells; 48h+24h): 0% | Acetate %var (MCF-10A cells; 48h+24h): 63.78% | Ala %var (MCF-10A cells; 48h+24h): -65.18% | Asp %var (MCF-10A cells; 48h+24h): -24.38% | Choline %var (MCF-10A cells; 48h+24h): 0% | Citrate %var (MCF-10A cells; 48h+24h): -61.27% | Cr %var (MCF-10A cells; 48h+24h): 0% | Dimethylamine %var (MCF-10A cells; 48h+24h): 0% | Formate %var (MCF-10A cells; 48h+24h): 287.80% | Fumarate %var (MCF-10A cells; 48h+24h): 0% | GPC %var (MCF-10A cells; 48h+24h): 188.81% | GSH %var (MCF-10A cells; 48h+24h): -24.73% | Gln %var (MCF-10A cells; 48h+24h): 0% | Glu %var (MCF-10A cells; 48h+24h): -47.27% | Glucose %var (MCF-10A cells; 48h+24h): 0% | Glucose-1-phosphate %var (MCF-10A cells; 48h+24h): -92.25% | Gly %var (MCF-10A cells; 48h+24h): 0% | His %var (MCF-10A cells; 48h+24h): -44.80% | Ile %var (MCF-10A cells; 48h+24h): 36.26% | Lactate %var (MCF-10A cells; 48h+24h): 0% | Leu %var (MCF-10A cells; 48h+24h): 75.04% | NADH %var (MCF-10A cells; 48h+24h): 0% | PC %var (MCF-10A cells; 48h+24h): 0% | PCr %var (MCF-10A cells; 48h+24h): 0% | Phe %var (MCF-10A cells; 48h+24h): -24.03% | Pro %var (MCF-10A cells; 48h+24h): 0% | Tyr %var (MCF-10A cells; 48h+24h): -36.13% | UDP-GalNAc %var (MCF-10A cells; 48h+24h): 0% | UDP-GlcNAc %var (MCF-10A cells; 48h+24h): 0% | UDP-Glucose %var (MCF-10A cells; 48h+24h): -66.89% | Val %var (MCF-10A cells; 48h+24h): 10.36% | myo -Lno %var (MCF-10A cells; 48h+24h): -52.77% | lactate levels and expression of glycolytic enzymes (MDA-MB-231 cells): did not alter
